Results as given in the supplement of paper PMC10307832.

Columns and labels:
Test in all cases: relative viability (nuclei count vs DMSO), 5 days (fraction); higher = more cells survive
[1] = compound: CN(c1ncccc1CNc1nc(Nc2ccc3c(c2)CC(=O)N3)ncc1C(F)(F)F)S(C)(=O)=O + CS(=O)(=O)N1CCN(Cc2cc3nc(-c4cccc5[nH]ncc45)nc(N4CCOCC4)c3s2)CC1 [Pictilisib] (partner 1 µM)
How it was run: (§1)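 Medians of duplicate plates are given as relative viability. That measure is the nuclei count in treated wells divided by the count in vehicle wells. Counts were taken on 4× images of lung cancer cell lines in 1536-well plates, 5 days after pin-tool dosing the day after seeding with one drug alone or a fixed anchor-drug dose plus five library-drug doses (not always all listed) in √10 steps.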

[2] = compound: CN(c1ncccc1CNc1nc(Nc2ccc3c(c2)CC(=O)N3)ncc1C(F)(F)F)S(C)(=O)=O + COc1cc2c(Oc3ccc(NC(=O)C4(C(=O)Nc5ccc(F)cc5)CC4)cc3F)ccnc2cc1OCCCN1CCOCC1 [Foretinib] (partner 0.25 µM)
How it was run: as §1

[3] = compound: CN(c1ncccc1CNc1nc(Nc2ccc3c(c2)CC(=O)N3)ncc1C(F)(F)F)S(C)(=O)=O + CC(=O)c1c(C)c2cnc(Nc3ccc(N4CCNCC4)cn3)nc2n(C2CCCC2)c1=O [Palbociclib] (partner 0.5 µM)
How it was run: as §1

[4] = compound: CN(c1ncccc1CNc1nc(Nc2ccc3c(c2)CC(=O)N3)ncc1C(F)(F)F)S(C)(=O)=O + CC(C)C[C@H](NC(=O)[C@H](Cc1ccccc1)NC(=O)c1cnccn1)B(O)O [Bortezomib] (partner 0.002 µM)
How it was run: as §1

Row | Cell Line | relative viability ([1]; first compound 0.01 µM) | relative viability ([1]; first compound 0.03162 µM) | relative viability ([1]; first compound 0.1 µM) | relative viability ([1]; first compound 0.3162 µM) | relative viability ([1]; first compound 1 µM) | relative viability ([2]; first compound 0.01 µM) | relative viability ([2]; first compound 0.03162 µM) | relative viability ([2]; first compound 0.1 µM) | relative viability ([2]; first compound 0.3162 µM) | relative viability ([2]; first compound 1 µM) | relative viability ([3]; first compound 0.01 µM) | relative viability ([3]; first compound 0.03162 µM) | relative viability ([3]; first compound 0.1 µM) | relative viability ([3]; first compound 0.3162 µM) | relative viability ([3]; first compound 1 µM) | relative viability ([4]; first compound 0.01 µM) | relative viability ([4]; first compound 0.03162 µM) | relative viability ([4]; first compound 0.1 µM) | relative viability ([4]; first compound 0.3162 µM) | relative viability ([4]; first compound 1 µM)
1 | LCLC-103H | 0.558 | 0.561 | 0.6 | 0.536 | 0.577 | 0.677 | 0.751 | 0.765 | 0.766 | 0.759 | 0.499 | 0.428 | 0.5 | 0.471 | 0.484 | 1.13 | 1.05 | 1.18 | 0.937 | 1.02
2 | LOU-NH91 | 0.519 | 0.548 | 0.504 | 0.551 | 0.575 | 0.945 | 1.02 | 0.88 | 1.04 | 0.999 | 0.521 | 0.512 | 0.534 | 0.52 | 0.492 | 0.497 | 0.47 | 0.482 | 0.482 | 0.459
3 | LU99A | 0.314 | 0.357 | 0.342 | 0.373 | 0.335 | 0.838 | 0.873 | 0.841 | 0.947 | 0.929 | 0.406 | 0.517 | 0.465 | 0.411 | 0.448 | 1.15 | 1.26 | 1.09 | 1.43 | 1.22
4 | LXF-289 | 0.834 | 0.937 | 0.75 | 0.677 | 0.737 | 1.04 | 1.01 | 1.02 | 1.04 | 0.968 | 0.63 | 0.592 | 0.567 | 0.639 | 0.582 | 1.05 | 1.01 | 0.991 | 0.989 | 0.978
5 | NCI-H23 | 0.554 | 0.492 | 0.564 | 0.495 | 0.441 | 0.914 | 1.08 | 1.08 | 1.06 | 0.861 | 0.581 | 0.538 | 0.549 | 0.618 | 0.455 | 1.22 | 1.38 | 1.09 | 1.08 | 1.03
6 | NCI-H322M | 0.495 | 0.48 |  | 0.593 | 0.553 | 1.05 | 1.09 | 0.986 | 1.21 | 1.31 | 0.481 | 0.503 | 0.529 | 0.475 | 0.488 | 1.26 | 1.41 |  | 1.38 | 1.44
7 | NCI-H441 | 0.554 | 0.516 | 0.527 | 0.527 | 0.508 | 0.974 | 1.14 | 0.999 | 1.17 | 0.761 | 0.23 | 0.239 | 0.181 | 0.176 | 0.16 | 0.68 | 0.859 | 0.36 | 0.542 | 0.377
8 | NCI-H460 | 0.338 | 0.425 | 0.437 | 0.367 | 0.418 | 1.1 | 1.09 | 0.892 | 1.02 | 0.972 | 0.147 | 0.179 | 0.148 | 0.21 | 0.15 | 1.18 | 1.39 | 1.13 | 1.07 | 1.13
